From patent US9334286B2, “Pharmacologically active compounds” (Cancer Research Technology Limited, priority 2012, dated 2016)

What follows are compounds tested against full length MPS1 (Homo sapiens (Human), UniProt P33981) (assay: Measurement of inhibition of MPS1 kinase (Caliper EZ reader, fluorescent labelled peptide H236)). Conditions: not given.
Sequence of full length MPS1 (P33981 whole entry): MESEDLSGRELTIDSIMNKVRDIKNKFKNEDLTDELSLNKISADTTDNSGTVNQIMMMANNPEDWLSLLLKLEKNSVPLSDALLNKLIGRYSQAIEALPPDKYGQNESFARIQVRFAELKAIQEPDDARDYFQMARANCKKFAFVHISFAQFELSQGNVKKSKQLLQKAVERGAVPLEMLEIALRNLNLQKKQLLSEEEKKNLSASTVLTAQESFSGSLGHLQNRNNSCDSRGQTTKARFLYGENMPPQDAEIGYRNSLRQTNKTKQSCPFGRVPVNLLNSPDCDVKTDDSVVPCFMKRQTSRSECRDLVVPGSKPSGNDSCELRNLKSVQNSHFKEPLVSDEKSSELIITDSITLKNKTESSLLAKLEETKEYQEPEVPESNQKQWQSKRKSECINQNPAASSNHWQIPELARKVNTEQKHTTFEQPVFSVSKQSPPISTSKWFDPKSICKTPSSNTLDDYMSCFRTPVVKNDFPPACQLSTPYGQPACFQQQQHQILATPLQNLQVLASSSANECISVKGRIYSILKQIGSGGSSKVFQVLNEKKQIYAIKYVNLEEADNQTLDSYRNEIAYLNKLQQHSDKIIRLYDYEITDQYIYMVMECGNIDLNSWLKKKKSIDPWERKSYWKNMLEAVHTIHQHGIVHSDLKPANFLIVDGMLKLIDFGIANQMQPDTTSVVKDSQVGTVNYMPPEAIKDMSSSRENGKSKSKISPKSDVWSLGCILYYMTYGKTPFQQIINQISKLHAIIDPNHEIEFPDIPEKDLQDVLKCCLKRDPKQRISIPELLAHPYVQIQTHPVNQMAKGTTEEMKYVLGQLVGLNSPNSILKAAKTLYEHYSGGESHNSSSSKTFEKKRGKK
Format: biochemical
Experimental: The reaction was carried out for 60 min at room temperature and stopped by the addition of buffer (10 μl) containing 20 mM EDTA, 0.05% (v/v) Brij-35, in 0.1M HEPES-buffered saline (Free acid, Sigma, UK). The plate was read on a Caliper EZ reader II (Caliper Life Sciences).
The reader provides a Software package (‘Reviewer’) which converts the peak heights into % conversion by measuring both product and substrate peak and also allows selection of control well which represent 0% and 100% inhibition respectively. The % inhibition of the compounds is calculated relative to the means of selected control wells. IC50s are determined by testing the compounds at a range of concentrations from 0.25 nM-100 μM. The % inhibitions at each concentration are then fitted to a 4 parameter logistic fit: y=(a+((b−a)/(1+((c/x^d)))) where a=asym min, b=asym max, c=IC50 and d=hill coefficient
In the case of `COCCn1cc(-c2ccc3cnc(Nc4ccc(-c5cnc(CO)n5C)cc4OC)cc3c2)cn1` [Example 25, (5-(3-Methoxy-4-((6-(1-(2-methoxyethyl)-1H-pyrazol-4-yl)isoquinolin-3-yl)amino)phenyl)-1-methyl-1H-imidazol-2-yl)methanol], the IC50 is reported as 28 nM.

Same assay, conditions: full length MPS1 12.5 nM or 3 nM, peptide H236 5 μM, ATP 10 μM, 60 min at room temperature
In the case of `COc1cc(-c2cnc(C)n2C)ccc1Nc1cc2cc(-c3cncnc3)ccc2cn1` [Example 17, N-(4-(1,2-dimethyl-1H-imidazol-5-yl)-2-methoxyphenyl)-6-(pyrimidin-5-yl)isoquinolin-3-amine], the IC50 is reported as 14 nM.
With `COc1cc(-c2cnc(C)n2C)ccc1Nc1cc2cc(C3CC3)ccc2cn1` [Example 18, 6-Cyclopropyl-N-(4-(1,2-dimethyl-1H-imidazol-5-yl)-2-methoxyphenyl)isoquinolin-3-amine] the IC50 was 144 nM.
In the case of `COc1cc(-c2cnc(C)n2C)ccc1Nc1cc2cc(-c3cn(C)nc3C)ccc2cn1` [Example 19, N-(4-(1,2-dimethyl-1H-imidazol-5-yl)-2-methoxyphenyl)-6-(1,3-dimethyl-1H-pyrazol-4-yl)isoquinolin-3-amine], the IC50 is reported as 30 nM.
`COc1cc(-c2cnc(C)n2C)ccc1Nc1cc2cc(-c3cnn(C)c3C)ccc2cn1` [Example 20, N-(4-(1,2-dimethyl-1H-imidazol-5-yl)-2-methoxyphenyl)-6-(1,5-dimethyl-1H-pyrazol-4-yl)isoquinolin-3-amine] showed an IC50 of 2 nM.
In the case of `COc1cc(-c2cncn2C)ccc1Nc1cc2cc(-c3cnn(C)c3)ccc2cn1` [Example 21, N-(2-methoxy-4-(1-methyl-1H-imidazol-5-yl)phenyl)-6-(1-methyl-1H-pyrazol-4-yl)isoquinolin-3-amine], the IC50 is reported as 3 nM.
Work on `Cc1ncc(-c2ccc(Nc3cc4cc(-c5cnn(C)c5)ccc4cn3)c(Cl)c2)n1C` [Example 22, N-(2-chloro-4-(1,2-dimethyl-1H-imidazol-5-yl)phenyl)-6-(1-methyl-1H-pyrazol-4-yl)isoquinolin-3-amine] yielded an IC50 of 4 nM.
Work on `COc1cc(-c2cnc(C)n2C)ccc1Nc1cc2cc(-c3cnn(C)c3)ccc2cn1` [Example 23, N-(4-(1,2-dimethyl-1H-imidazol-5-yl)-2-methoxyphenyl)-6-(1-methyl-1H-pyrazol-4-yl)isoquinolin-3-amine] yielded an IC50 of 2 nM.
Work on `COc1cc(C(=O)N2CC(OC)C2)ccc1Nc1cc2cc(-c3cnn(C)c3)ccc2cn1` [Example 24, (3-Methoxy-4-((6-(1-methyl-1H-pyrazol-4-yl)isoquinolin-3-yl)amino)phenyl)(3-methoxyazetidin-1-yl)methanone] yielded an IC50 of 2 nM.
Compound `COc1cc(-c2cnc(C)n2C)ccc1Nc1cc2cc(-c3cncc(C)c3)ccc2cn1` [Example 26, N-(4-(1,2-dimethyl-1H-imidazol-5-yl)-2-methoxyphenyl)-6-(5-methylpyridin-3-yl)isoquinolin-3-amine] has an IC50 of 10 nM.
In the case of `COc1cc(-c2cnc(C)n2C)ccc1Nc1cc2cc(-c3cnnn3C)ccc2cn1` [Example 27, N-(4-(1,2-dimethyl-1H-imidazol-5-yl)-2-methoxyphenyl)-6-(1-methyl-1H-1,2,3-triazol-5-yl)isoquinolin-3-amine], the IC50 is reported as 4 nM.
With `COc1cc(-c2cnc(C)n2C)ccc1Nc1cc2cc(-c3cnn(CC4CCC4)c3)ccc2cn1` [Example 28, 6-(1-(Cyclobutylmethyl)-1H-pyrazol-4-yl)-N-(4-(1,2-dimethyl-1H-imidazol-5-yl)-2-methoxyphenyl)isoquinolin-3-amine] the IC50 was 3 nM.
`COc1cc(-c2cnc(C)n2C)ccc1Nc1cc2cc(-c3cnn(CC(C)(C)O)c3)ccc2cn1` [Example 29, 1-(4-(3-((4-(1,2-Dimethyl-1H-imidazol-5-yl)-2-methoxyphenyl)amino)isoquinolin-6-yl)-1H-pyrazol-1-yl)-2-methylpropan-2-ol] showed an IC50 of 2 nM.
`COc1cc(-c2cnc(C)n2C)ccc1Nc1cc2cc(-c3cnn(CC4(C)COC4)c3)ccc2cn1` [Example 30, N-(4-(1,2-Dimethyl-1H-imidazol-5-yl)-2-methoxyphenyl)-6-(1-((3-methyloxetan-3-yl)methyl)-1H-pyrazol-4-yl)isoquinolin-3-amine] gave an IC50 of 2 nM.
